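Method: 48-hour compound exposure of cells in 96-well plates, five concentrations, linear interpolation of endpoints. At the GI50, growth is halved.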 Activity calls are given as the source filed them. Rule as the data show it: active = GI50 up to about 1.1 µM and inactive = higher.
How the values were obtained:
Assay in all cases: NCI anticancer screen, dose series, 48 h
[1] = tested on: 786-0
[2] = tested on: A549
[3] = tested on: HCT-15
[4] = tested on: HL-60
[5] = tested on: HOP-92
[6] = tested on: M14
[7] = tested on: MDA-MB-231
[8] = tested on: MOLT-4
[9] = tested on: NCI-H226
[10] = tested on: OVCAR-3
[11] = tested on: OVCAR-8
[12] = tested on: RXF 393
[13] = tested on: SF-268
[14] = tested on: SK-MEL-28
[15] = tested on: SW-620
[16] = tested on: UACC-257
[17] = tested on: UO-31
[18] = tested on: SNB-75
[19] = tested on: HCC 2998

Row | Compound | GI50 [1] | GI50 [2] | GI50 [3] | GI50 [4] | GI50 [5] | GI50 [6] | GI50 [7] | GI50 [8] | GI50 [9] | GI50 [10] | GI50 [11] | GI50 [12] | GI50 [13] | GI50 [14] | GI50 [15] | GI50 [16] | GI50 [17] | GI50 [18] | GI50 [19]
1 | COc1ccc(N(CC(=O)O)N=O)cc1 | > 100 µM (inactive) | > 100 µM (inactive) | > 100 µM | > 100 µM (inactive) | > 100 µM (inactive) | > 100 µM (inactive) | > 100 µM (inactive) | > 100 µM (inactive) | > 100 µM (inactive) | > 100 µM (inactive) | > 100 µM (inactive) | > 100 µM (inactive) | > 100 µM (inactive) | > 100 µM (inactive) | > 100 µM (inactive) | > 100 µM (inactive) | > 100 µM (inactive) |  | 
2 | CN1CCN(c2ccc(-n3cc(C(=O)O)c(=O)c4cc(F)c(N5CCN(C)CC5)cc43)nc2)CC1 | 64.7 µM (inactive) | > 100 µM (inactive) | > 100 µM | > 100 µM (inactive) | > 100 µM (inactive) | > 100 µM (inactive) | > 100 µM (inactive) | > 100 µM (inactive) | > 100 µM (inactive) | > 100 µM (inactive) | 85.1 µM (inactive) | > 100 µM (inactive) | > 100 µM (inactive) | > 100 µM (inactive) | 56.2 µM (inactive) | > 100 µM (inactive) | > 100 µM (inactive) | > 100 µM (inactive) | 
3 | COc1ccc2c(c1)CC[C@@H]1[C@@H]2CC[C@]2(C)C(=O)/C(=C/c3ccc(C#N)cc3)C[C@@H]12 | > 100 µM (inactive) | > 100 µM (inactive) | > 100 µM |  |  | > 100 µM (inactive) | > 100 µM (inactive) | > 100 µM (inactive) | > 100 µM (inactive) |  | > 100 µM (inactive) | > 100 µM (inactive) | > 100 µM (inactive) | > 100 µM (inactive) | > 100 µM (inactive) | > 100 µM (inactive) | > 100 µM (inactive) | > 100 µM (inactive) | > 100 µM (inactive)
4 | CC(C)(C)N1CSC(=S)N(Cc2ccco2)C1 | 1.63 µM (inactive) | 5.4 µM (inactive) | 2.56 µM | 1.53 µM (inactive) | 1.55 µM (inactive) | 2.46 µM (inactive) |  | 1.45 µM (inactive) | 20.3 µM (inactive) | 1.94 µM (inactive) | 2.12 µM (inactive) | 5.87 µM (inactive) | 3.93 µM (inactive) | 2.4 µM (inactive) | 1.21 µM (inactive) | 10.3 µM (inactive) | 2.38 µM (inactive) | 12.8 µM (inactive) | 4.02 µM (inactive)
5 | NC(=O)c1ccccc1NC(=O)C(=O)C(C(=O)c1ccc(Cl)c(Cl)c1)C1OC(=O)c2ccccc21 (stereo not given) | 48.8 µM (inactive) | 43.1 µM (inactive) | 46.5 µM | > 100 µM (inactive) | 42.8 µM (inactive) | 61.1 µM (inactive) |  | > 100 µM (inactive) | 14.9 µM (inactive) | 35.1 µM (inactive) | 39.6 µM (inactive) | 17 µM (inactive) | 34.4 µM (inactive) |  | 46.5 µM (inactive) | 62.4 µM (inactive) |  | 23.4 µM (inactive) | 49.8 µM (inactive)
6 | O=C1/C(=C/c2cccc([N+](=O)[O-])c2)Cc2ccccc21 | > 100 µM (inactive) | 91.6 µM (inactive) | 72.8 µM | > 100 µM (inactive) | 75.3 µM (inactive) | > 100 µM (inactive) | > 100 µM (inactive) | > 100 µM (inactive) | > 100 µM (inactive) | > 100 µM (inactive) | > 100 µM (inactive) |  | > 100 µM (inactive) | > 100 µM (inactive) | 94.8 µM (inactive) | > 100 µM (inactive) | 94.8 µM (inactive) | > 100 µM (inactive) | 
7 | O=C1/C(=C/c2cccc3ccccc23)Cc2ccccc21 | 20.4 µM (inactive) | 38.4 µM (inactive) | 34.9 µM | 28.4 µM (inactive) |  | 59.2 µM (inactive) |  | 40.5 µM (inactive) | 10.5 µM (inactive) | 27.1 µM (inactive) | 53.8 µM (inactive) | 16.7 µM (inactive) | 22.6 µM (inactive) | 32.8 µM (inactive) | 31.6 µM (inactive) |  | 22.1 µM (inactive) | 29.8 µM (inactive) | 15.5 µM (inactive)
8 | CC(=O)Oc1ccc(-c2c(OC(C)=O)c(OC(C)=O)c(-c3ccc(OC(C)=O)c(OC(C)=O)c3)c(OC(C)=O)c2OC(C)=O)cc1 | 16.1 µM (inactive) | 17.8 µM (inactive) | 17.1 µM | 22.9 µM (inactive) |  | 18.1 µM (inactive) | 18.6 µM (inactive) | 20.2 µM (inactive) | 17.9 µM (inactive) | 15.7 µM (inactive) | 14.6 µM (inactive) | 18.2 µM (inactive) | 17.7 µM (inactive) | 14.8 µM (inactive) | 14.9 µM (inactive) | 15.1 µM (inactive) | 15.5 µM (inactive) | 13.6 µM (inactive) | 
